{"source": "paper PMC6690547", "about": "“The triphenylmethane dye brilliant blue G is only moderately effective at inhibiting amyloid formation by human amylin or at disaggregating amylin amyloid fibrils, but interferes with amyloid assays; Implications for inhibitor design” (PLoS ONE, 2019)", "target": "T1, human amylin (h-amylin) (Homo sapiens, UniProt P10997)", "T1 construct": "gene IAPP; synthetic 37 residue polypeptide with a disulfide bridge connecting Cys-2 and Cys-7 and an amidated C-terminus; measured as amyloid fibrils", "T1 sequence (P10997 34-70)": "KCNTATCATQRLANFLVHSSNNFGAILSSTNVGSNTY", "assay": "co-sedimentation of BBG with h-amylin amyloid fibrils (supernatant absorbance at […] nm); supported by TEM/AFM of inhibited and remodeled fibrils and loss of thioflavin-T signal", "type": "binding", "source_text": "The result is consistent with binding of BBG to h-amylin amyloid fibers"}
{"smiles": "CCOc1ccc(Nc2ccc(/C(=C3C=C/C(=[N+](/CC)Cc4cccc(S(=O)(=O)[O-])c4)C=C/3C)c3ccc(N(CC)Cc4cccc(S(=O)(=O)O)c4)cc3C)cc2)cc1", "note": "[BBG, Sodium;3-[[4-[(E)-[4-(4-ethoxyanilino)phenyl]-[4-[ethyl-[(3-sulfonatophenyl)methyl]azaniumylidene]-2-methylcyclohexa-2,5-dien-1-ylidene]methyl]-N-ethyl-3-methylanilino]methyl]benzenesulfonate]", "values": [{"measurement": "co-sedimentation of BBG with h-amylin amyloid fibrils (supernatant absorbance at)", "value": "significant BBG pellets with the fiber. The result is consistent with binding of BBG to h-amylin amyloid fibers"}]}
